Laboratory results reported in patent US20230102840A1, “COMPOSITIONS AND METHODS RELATING TO COMBINATORIAL HYALURONIC ACID CONJUGATES” (PRESIDENT AND FELLOWS OF HARVARD COLLEGE, priority 2020, published 2023).
Converted amounts (≈) assume the structure as drawn.

Experiments:
[1] = test system: primary human fibroblasts; assay: Cell viability study in primary human fibroblasts; format: cell-based; details: increasing concentrations, 48 h, relative to the untreated control
Experimental: Primary human fibroblast (seeded at density 5,000 cells/well) and primary human keratinocytes (at density 2,000 cells/well) were used for the cytotoxicity studies in vitro. The culture media used for the keratinocytes was keratinocyte serum free medium supplemented with L-glutamine, EGF and BPE while that for fibroblasts was Dulbecco's Modified Eagle's Medium-high glucose supplemented with 2% penicillin/streptomycin and 5% FBS. Cells were incubated in a humidified incubator under 5% CO2 at 37° C. After 24 h, 50 μL of the media were withdrawn and replaced by 50 ul of increasing concentrations of each treatment reaching a final volume of 100 μL in the well. Cells were incubated for 48 h under standard cell culture conditions after which cell viability was assessed by AB assay as previously described.

BMDM [2] = assay: Viability of BMDM after 48 h treatment; format: cell-based
Experimental: Immune cells system as macrophages and dendritic cells are responsible for the initiation of immune responses, and are the prime target for immunostimulatory drugs. To verify that the HA-RES conjugate is not toxic for immune cells, BMDM were treated with increasing concentrations of RES or HA-RES for 48 h.
The inventors also tested the effect of BEX and its HA conjugate on the viability of BMDM by exposing them to increasing concentration ranging from (0.39-50 μM).

BMDM [3] = assay: BMDM polarization (M1/M2 marker expression); format: cell-based; details: 48 hr, vs untreated cells
Experimental: To further elucidate the effect of HA-RES and HA-BEX and their combination on macrophage phenotyping the inventors studied their effect on macrophage polarization. BMDMs were treated with different concentrations of RES and HA-RES for 48 hr. (FIG. 6A)
The expression of several markers associated with M1 and M2 phenotypes was evaluated.

[4] = test system: B16F10-Luc melanoma cells; assay: Cytotoxicity study on B16F10-Luc cells; format: cell-based; details: 48 h
Experimental: (§1) 5×10^3 B16F10-Luc cells were seeded in 96 well plates and allowed to adhere overnight. For establishment for a coculture, B16F10 cells were cocultured with BMDM at a ratio of 1:10 (5×10^3 B16F10: 5×10^4 BMDM per well). The next day, the media was aspirated and replaced with increasing concentration of the free drugs, combination and the HA-conjugates with equivalent free drug concentrations and cells were incubated with the drug solutions for 48 h after which the treatment was aspirated and replaced with 0.5% Xenolight-D-luciferin potassium salt solution in complete DMEM. Finally, cellular viability was assessed by reading the luminescence of the solution from each well after 5 min using BioTek plate reader. Untreated cells were used as controls.

[5] = test system: B16F10-Luc melanoma cells cocultured with BMDM; assay: Cytotoxicity study, B16F10-Luc cocultured with BMDM; format: cell-based; details: coculture with BMDM; compared with B16F10 alone
Experimental: as §1

A431 cells = assay: In vitro cytotoxicity on A431 cells; format: cell-based; details: Homo sapiens, A-431; 48 h, alamar blue
Experimental: A431 cells were cultured in DMEM media supplemented with 10% FBS, 1% Pen Strep. The cells were passaged 3-4 times prior to setting up the assay. […] Cells were cultured in a humidified incubator maintained at 37° C. and 5% C02 (Thermo scientific, USA). A431 Cells (5×10^3 in 100 ul in complete DMEM) were seeded in 96 well plates and allowed to adhere overnight. The next day, cell culture media was aspirated and replaced with the different treatments. The cells were incubated with the drug solutions for 48 hr after which the treatment was aspirated and replaced with 10% alamar blue (AB) solution in complete DMEM and incubated for an additional 3.5 h in the dark at 37° C. […] Finally, cellular viability was assessed by reading the florescence of the solution from each well at λex=560 nm and λem=590 nm. […] Baseline fluorescence levels from wells without cells were subtracted from each data (Dose response curves were fit to each drug and/or polymer drug conjugate with the median effect model^[28]. For combination treatment, synergy was quantified with the combination index^[29]

[6] = background statement; cited from earlier work

SMILES | viability of primary human dermal fibroblasts [1] | viability of BMDM (BMDM [2]; 50 uM) | viability of BMDM (BMDM [2]; all concentrations tested up to 25 uM (range 0.39-50 μM)) | expression of CD206 (M2 marker) (BMDM [3]) | IC50 ([4]; Mus musculus, B16-F10, luminescence viability) [µM] | IC50 in the presence of MAC [5] | IC50 (A431 cells) [µM] | aqueous solubility [6] [µM] | viability of BMDM (BMDM [2]; increasing concentrations, 48 h, all concentrations tested) | cytotoxic effect on melanoma cells ([4]; B16F10-Luc alone)
O=C(CCCCCCC(=O)Nc1ccccc1)NO [VOR, Vorinostat] | did not significantly affect the cell viability |  |  |  |  |  |  |  |  | 
C=C(c1ccc(C(=O)O)cc1)c1cc2c(cc1C)C(C)(C)CCC2(C)C [BEX, Bexarotene] | did not significantly affect the cell viability | significant decrease in the cells viability | didn't alter the viability | significant reduction | 25 | same IC50 | 60.3 | ~10 (≈ 3.48 µg/mL) |  | 
CCOCc1nc2c(N)nc3ccccc3c2n1CC(C)(C)O [RES, Resiquimod] |  |  |  |  |  |  |  |  | marked increase in cell viability | negligible cytotoxic effect
